The source of these data is ChEMBL document CHEMBL4043180, “Biological evaluation of 2-pyrazolinyl-1-carbothioamide derivatives against HCT116 human colorectal cancer cell lines and elucidation on QSAR and molecular binding modes” (Bioorg Med Chem, 2017).

The source made the active and inactive calls. The calls are words filed in the database; no cut-off is given here.

The target in assay [1] is Bcr/Abl fusion protein (Homo sapiens) (UniProt P00519+P11274). Put plainly: Inhibition of BCR/ABL Tyr245 phosphorylation in human K562 cells at 20 uM incubated for 6 to 24 hrs. In kind it is cell-based.
Chain of Bcr/Abl fusion protein (Homo sapiens) (P00519 whole entry, looked up, the tested form may be a part): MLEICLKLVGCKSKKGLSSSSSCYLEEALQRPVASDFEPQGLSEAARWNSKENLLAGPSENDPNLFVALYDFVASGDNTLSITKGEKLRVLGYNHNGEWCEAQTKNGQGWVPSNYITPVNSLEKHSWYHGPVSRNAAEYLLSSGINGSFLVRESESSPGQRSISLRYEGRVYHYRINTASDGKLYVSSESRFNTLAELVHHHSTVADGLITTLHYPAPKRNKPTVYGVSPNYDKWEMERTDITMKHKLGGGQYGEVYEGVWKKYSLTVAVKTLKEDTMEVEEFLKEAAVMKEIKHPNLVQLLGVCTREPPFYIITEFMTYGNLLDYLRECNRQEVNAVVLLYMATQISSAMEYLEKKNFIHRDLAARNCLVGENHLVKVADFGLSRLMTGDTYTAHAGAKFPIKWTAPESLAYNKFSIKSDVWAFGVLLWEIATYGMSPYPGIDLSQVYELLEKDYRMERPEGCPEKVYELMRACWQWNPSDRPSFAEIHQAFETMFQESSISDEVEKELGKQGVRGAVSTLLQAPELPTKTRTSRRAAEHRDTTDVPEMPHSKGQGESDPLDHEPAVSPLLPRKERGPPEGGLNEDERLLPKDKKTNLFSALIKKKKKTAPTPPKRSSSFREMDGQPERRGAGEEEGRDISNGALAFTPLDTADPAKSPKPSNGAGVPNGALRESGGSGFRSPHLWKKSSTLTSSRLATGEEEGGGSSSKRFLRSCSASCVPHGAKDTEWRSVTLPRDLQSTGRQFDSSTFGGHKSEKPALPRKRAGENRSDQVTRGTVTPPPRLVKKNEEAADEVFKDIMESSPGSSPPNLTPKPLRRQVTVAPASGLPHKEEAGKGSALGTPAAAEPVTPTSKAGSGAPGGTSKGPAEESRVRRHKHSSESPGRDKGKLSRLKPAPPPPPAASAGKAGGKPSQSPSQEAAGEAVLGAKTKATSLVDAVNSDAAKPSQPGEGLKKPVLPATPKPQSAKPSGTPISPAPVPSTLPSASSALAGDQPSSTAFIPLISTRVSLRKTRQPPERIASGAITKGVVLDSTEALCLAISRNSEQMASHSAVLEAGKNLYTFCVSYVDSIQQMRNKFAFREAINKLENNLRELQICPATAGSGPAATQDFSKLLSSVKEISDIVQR
Chain of Bcr/Abl fusion protein (Homo sapiens) (P11274 whole entry, looked up, the tested form may be a part): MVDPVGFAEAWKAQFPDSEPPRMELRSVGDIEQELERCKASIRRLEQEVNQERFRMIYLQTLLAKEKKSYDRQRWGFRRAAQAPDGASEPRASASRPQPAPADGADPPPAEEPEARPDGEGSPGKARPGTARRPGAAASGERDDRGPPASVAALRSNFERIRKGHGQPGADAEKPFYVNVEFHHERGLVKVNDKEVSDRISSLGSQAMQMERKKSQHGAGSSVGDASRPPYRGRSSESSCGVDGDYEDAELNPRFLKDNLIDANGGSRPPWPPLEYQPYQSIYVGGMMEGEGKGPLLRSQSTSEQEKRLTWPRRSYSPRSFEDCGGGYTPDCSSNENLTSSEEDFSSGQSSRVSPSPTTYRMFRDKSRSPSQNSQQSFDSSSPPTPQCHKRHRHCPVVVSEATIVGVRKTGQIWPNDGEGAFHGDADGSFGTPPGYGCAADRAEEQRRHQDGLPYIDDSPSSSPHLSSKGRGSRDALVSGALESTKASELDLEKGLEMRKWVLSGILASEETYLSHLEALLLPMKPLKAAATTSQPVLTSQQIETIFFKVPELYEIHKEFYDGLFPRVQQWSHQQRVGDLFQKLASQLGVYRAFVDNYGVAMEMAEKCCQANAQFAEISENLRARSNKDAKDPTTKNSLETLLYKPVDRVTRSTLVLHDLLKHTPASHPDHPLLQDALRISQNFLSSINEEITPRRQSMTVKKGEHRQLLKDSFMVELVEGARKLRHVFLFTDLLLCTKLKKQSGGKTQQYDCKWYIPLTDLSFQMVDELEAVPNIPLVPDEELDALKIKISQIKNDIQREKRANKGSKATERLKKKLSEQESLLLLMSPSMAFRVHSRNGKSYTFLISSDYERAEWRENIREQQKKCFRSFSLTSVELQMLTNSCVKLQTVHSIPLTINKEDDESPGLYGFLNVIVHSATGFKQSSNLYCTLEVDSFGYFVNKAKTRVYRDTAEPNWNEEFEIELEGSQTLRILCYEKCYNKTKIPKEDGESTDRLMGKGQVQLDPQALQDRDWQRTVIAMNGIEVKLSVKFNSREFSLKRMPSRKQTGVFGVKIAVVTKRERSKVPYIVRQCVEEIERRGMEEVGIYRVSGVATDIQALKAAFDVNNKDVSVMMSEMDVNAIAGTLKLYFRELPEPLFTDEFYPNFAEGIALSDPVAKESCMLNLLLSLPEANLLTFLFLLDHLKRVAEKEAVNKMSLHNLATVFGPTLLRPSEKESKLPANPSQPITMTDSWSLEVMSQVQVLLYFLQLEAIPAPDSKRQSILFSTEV
Assay [2] has as its target Tyrosine-protein kinase ABL1 (Homo sapiens) (UniProt P00519). The assay can be described thus: Inhibition of Abl1 (unknown origin) at 10 uM.

Chain of Tyrosine-protein kinase ABL1 (Homo sapiens) (P00519 whole entry): as the sequence (P00519 whole entry, looked up, the tested form may be a part) above

For `COc1cc(O)c(C2=NN(C(=S)Nc3cc(OC)c(OC)c(OC)c3)C(c3cccc4ccccc34)C2)cc1OC` (configuration not stated), in assay [1], the inhibition – broadly, the drop in the measured response relative to a control, in per cent – is “Active”. The same compound gave an inhibition in assay [2] of 93%.
